{"source": "patent US20230117920A1", "about": "“Library Construction Method, Cyclic Peptide, FXIIa Binder and IFNGR1 Binder” (The University of Tokyo, priority 2019, published 2023)", "key": {"[1]": {"target": "T1, interferon γ receptor 1 (IFNGR1) (Homo sapiens, UniProt P15260)", "conditions": "SPR, 25° C., 1:1 interaction model", "description": "Recombinant biotinylated human FXIIa was purchased from Molecular Innovations. The recombinant human IgG1 Fc and Fc labeled human IFNGR1 were purchased from R&D systems and AcroBiosystems, respectively.\nThe binding kinetics of those peptides to FXIIA and IFNGR1 was analyzed by surface plasmon resonance. […] The binding affinity was analyzed at 25° C. by SPR by using a Biacore T200 apparatus (GE Healthcare). The peptides, each used at five different concentrations, were injected at a floe rate of 30 μL/min and the rate constant was measured by single cycle kinetics method. The binding sensorgrams thus obtained were analyzed using a Biacore evaluation software and was fitted to a standard 1:1 interaction model."}, "[2]": {"target": "T1, interferon γ receptor 1 (IFNGR1)", "assay": "biochemical", "conditions": "read-out: ka"}}, "note": "Positions of bridges follow the written chain, without caps; N, C: chain ends. Non-standard residues stand in square brackets, D forms with d. Residues, ends and D or L forms follow the SMILES beside them.", "data": [{"smiles": "CC(C)[C@@H]1NC(=O)CNC(=O)[C@H](Cc2ccccc2)NC(=O)[C@@H](Cc2ccc(O)cc2)NC(=O)CSC[C@H](C(N)=O)NC(=O)[C@H]([C@@H](C)O)NC(=O)[C@H](CCCNC(=N)N)NC(=O)[C@H](CC(N)=O)NC(=O)[C@H](Cc2ccc(O)cc2)NC(=O)[C@H](Cc2ccccc2)NC(=O)[C@H](C)NC(=O)[C@H](CCCNC(=N)N)NC1=O", "note": "[I1-1A] ({CH2CO}-[dY]FGVRAFYNRT[dC]-NH2; thioether N-12)", "values": [{"measurement": "kd", "setting": "[1]", "value": "4.12 10^−2 · s^−1"}, {"measurement": "kon", "setting": "[2]", "value": 20000, "unit": "M⁻¹ s⁻¹"}]}]}
